Data from ChEMBL document CHEMBL1629642, “In vitro efficacy of ST246 against smallpox and monkeypox” (Antimicrob Agents Chemother, 2009).
Active and inactive are the calls of the source. The calls are words filed in the database; no cut-off is given here.

Tests used:
Monkeypox virus [1] = experiment: Antiviral activity against Monkeypox virus V81-I-179 infected in african green monkey BSC-40 cells assessed as reduction in virus-induced cytopathic effect at 0.05 to 5 uM; type: functional, organism-based
Variola virus [2] = experiment: Antiviral activity against Variola virus BRZ66-39 infected in african green monkey BSC-40 cells at 0.05 to 0.5 uM by IHC staining-based comet tail reduction assay; type: functional, organism-based
Ectromelia virus = experiment: Antiviral activity against Ectromelia virus infected in african green monkey Vero cells assessed as reduction in virus-induced cytopathic effect; type: functional, cell-based
Variola virus [3] = experiment: Antiviral activity against Variola virus SLN68-258 infected in african green monkey BSC-40 cells at 0.005 uM uM by IHC staining-based plaque reduction assay; type: functional, organism-based
Monkeypox virus [4] = experiment: Antiviral activity against Monkeypox virus V81-I-179 infected in african green monkey BSC-40 cells assessed as reduction in virus-induced cytopathic effect at 0.005 uM; type: functional, organism-based
Variola virus [5] = experiment: Antiviral activity against Variola virus SOM77-ali infected in african green monkey BSC-40 cells at 0.015 uM by IHC staining-based comet tail reduction assay; type: functional, organism-based
Variola virus [6] = experiment: Antiviral activity against Variola virus SUD47-juba infected in african green monkey BSC-40 cells at 0.05 to 0.5 uM by IHC staining-based plaque reduction assay; type: functional, organism-based
Monkeypox virus [7] = experiment: Antiviral activity against Monkeypox virus V1979-I-005 infected in african green monkey BSC-40 cells assessed as reduction in virus-induced cytopathic effect; type: functional, organism-based; details: V1979-I-005, BSC-40
Monkeypox virus [8] = experiment: Antiviral activity against Monkeypox virus V1979-I-005 infected in african green monkey BSC-40 cells at 0.005 uM by IHC staining-based comet tail reduction assay; type: functional, organism-based
Monkeypox virus [9] = experiment: Antiviral activity against Monkeypox virus V77-I-823 infected in african green monkey BSC-40 cells at 0.015 uM by IHC staining-based comet tail reduction assay; type: functional, organism-based
Monkeypox virus [10] = experiment: Antiviral activity against Monkeypox virus 2003-USA-039 infected in african green monkey BSC-40 cells at 0.005 uM by IHC staining-based comet tail reduction assay; type: functional, organism-based
Variola virus [11] = experiment: Antiviral activity against Variola virus BSH74-sol infected in african green monkey BSC-40 cells at 0.005 uM assessed as reduction in virus-induced cytopathic effect; type: functional, organism-based
Variola virus [12] = experiment: Antiviral activity against Variola virus BRZ66-39 infected in african green monkey BSC-40 cells at 0.015 uM by IHC staining-based comet tail reduction assay; type: functional, organism-based
Monkeypox virus [13] = experiment: Antiviral activity against Monkeypox virus V78-I-3945 infected in african green monkey BSC-40 cells at 0.005 uM by IHC staining-based comet tail reduction assay; type: functional, organism-based
Monkeypox virus [14] = experiment: Antiviral activity against Monkeypox virus V77-I-823 infected in african green monkey BSC-40 cells assessed as reduction in virus-induced cytopathic effect at 0.015 uM; type: functional, organism-based
Monkeypox virus [15] = experiment: Antiviral activity against Monkeypox virus V81-I-179 infected in african green monkey BSC-40 cells assessed as reduction in virus-induced cytopathic effect at 0.015 uM; type: functional, organism-based
Monkeypox virus [16] = experiment: Antiviral activity against Monkeypox virus V78-I-3945 infected in african green monkey BSC-40 cells assessed as reduction in virus-induced cytopathic effect at 0.015 uM; type: functional, organism-based
Variola virus [17] = experiment: microbe, parasite or virus in culture; details: SUD47-juba, BSC-40
Monkeypox virus [18] = experiment: Antiviral activity against Monkeypox virus V78-I-3945 infected in african green monkey BSC-40 cells assessed as reduction in virus-induced cytopathic effect; type: functional, organism-based; details: V78-I-3945, BSC-40
Monkeypox virus [19] = experiment: Antiviral activity against Monkeypox virus 2003-USA-039 infected in african green monkey BSC-40 cells at 0.015 uM by IHC staining-based comet tail reduction assay; type: functional, organism-based
Variola virus [20] = experiment: Antiviral activity against Variola virus BSH74-sol infected in african green monkey BSC-40 cells at 0.005 uM by IHC staining-based comet tail reduction assay; type: functional, organism-based
Variola virus [21] = experiment: microbe, parasite or virus in culture; details: NEP73-175, BSC-40
Monkeypox virus [22] = experiment: Antiviral activity against Monkeypox virus V81-I-179 infected in african green monkey BSC-40 cells at 0.015 uM by IHC staining-based comet tail reduction assay; type: functional, organism-based
Variola virus [23] = experiment: Antiviral activity against Variola virus SLN68-258 infected in african green monkey BSC-40 cells at 0.05 to 5 uM assessed as reduction in virus-induced cytopathic effect; type: functional, organism-based
Monkeypox virus [24] = experiment: Antiviral activity against Monkeypox virus V81-I-179 infected in african green monkey BSC-40 cells assessed as reduction in virus-induced cytopathic effect; type: functional, organism-based; details: V81-I-179, BSC-40
Monkeypox virus [25] = experiment: Antiviral activity against Monkeypox virus V77-I-823 infected in african green monkey BSC-40 cells at 0.05 to 0.5 uM by IHC staining-based comet tail reduction assay; type: functional, organism-based
Monkeypox virus [26] = experiment: Antiviral activity against Monkeypox virus V78-I-3945 infected in african green monkey BSC-40 cells assessed as reduction in virus-induced cytopathic effect at 0.005 uM; type: functional, organism-based
Monkeypox virus [27] = experiment: Antiviral activity against Monkeypox virus 2003-USA-039 infected in african green monkey BSC-40 cells assessed as reduction in virus-induced cytopathic effect at 0.005 uM; type: functional, organism-based
Monkeypox virus [28] = experiment: Antiviral activity against Monkeypox virus 2003-USA-039 infected in african green monkey BSC-40 cells assessed as reduction in viral plaque formation at 0.015 uM uM by IHC staining-based plaque reduction assay; type: functional
Monkeypox virus [29] = experiment: Antiviral activity against Monkeypox virus V77-I-823 infected in african green monkey BSC-40 cells assessed as reduction in virus-induced cytopathic effect; type: functional, organism-based; details: V77-I-823, BSC-40
Variola virus [30] = experiment: Antiviral activity against Variola virus NEP73-175 infected in african green monkey BSC-40 cells assessed as reduction in viral plaque formation at 0.015 uM uM by IHC staining-based plaque reduction assay; type: functional
Monkeypox virus [31] = experiment: Antiviral activity against Monkeypox virus infected in african green monkey vero cells assessed as reduction in virus-induced cytopathic effect; type: functional, organism-based
Variola virus [32] = experiment: Antiviral activity against Variola virus NEP73-175 infected in african green monkey BSC-40 cells at 0.005 uM assessed as reduction in virus-induced cytopathic effect; type: functional, organism-based
Variola virus [33] = experiment: Antiviral activity against Variola virus SOM77-ali infected in african green monkey BSC-40 cells at 0.05 to 5 uM assessed as reduction in virus-induced cytopathic effect; type: functional, organism-based
Variola virus [34] = experiment: Antiviral activity against Variola virus NEP73-175 infected in african green monkey BSC-40 cells at 0.015 uM assessed as reduction in virus-induced cytopathic effect; type: functional, organism-based
Variola virus [35] = experiment: Antiviral activity against Variola virus BRZ66-39 infected in african green monkey BSC-40 cells at 0.05 to 5 uM assessed as reduction in virus-induced cytopathic effect; type: functional, organism-based
Monkeypox virus [36] = experiment: Antiviral activity against Monkeypox virus V1979-I-005 infected in african green monkey BSC-40 cells at 0.005 uM uM by IHC staining-based plaque reduction assay; type: functional, organism-based
Monkeypox virus [37] = experiment: Antiviral activity against Monkeypox virus V1979-I-005 infected in african green monkey BSC-40 cells at 0.05 to 0.5 uM by IHC staining-based comet tail reduction assay; type: functional, organism-based

O=C(NN1C(=O)[C@@H]2[C@@H]3C=C[C@@H]([C@H]4C[C@@H]34)[C@@H]2C1=O)c1ccc(C(F)(F)F)cc1 [TECOVIRIMAT]
Activity (Monkeypox virus [1]): Active
Activity (Variola virus [2]): Active
Activity (Ectromelia virus): Active
Activity (Variola virus [3]): inactive
Activity (Monkeypox virus [4]): inactive
Activity (Variola virus [5]): Active
Activity (Variola virus [6]): Active
EC50 (Monkeypox virus [7]): 39 nM
Activity (Monkeypox virus [8]): inactive
Activity (Monkeypox virus [9]): Active
Activity (Monkeypox virus [10]): inactive
Activity (Variola virus [11]): inactive
Activity (Variola virus [12]): Active
Activity (Monkeypox virus [13]): inactive
Activity (Monkeypox virus [14]): Active
Activity (Monkeypox virus [15]): Active
Activity (Monkeypox virus [16]): Active
EC50 (Variola virus [17]): 19 nM
EC50 (Monkeypox virus [18]): 23 nM
Activity (Monkeypox virus [19]): Active
Activity (Variola virus [20]): inactive
EC50 (Variola virus [21]): 21 nM
Activity (Monkeypox virus [22]): Active
Activity (Variola virus [23]): Active
EC50 (Monkeypox virus [24]): 32 nM
Activity (Monkeypox virus [25]): Active
Activity (Monkeypox virus [26]): inactive
Activity (Monkeypox virus [27]): inactive
inhibition (INH) (Monkeypox virus [28]): 50%
EC50 (Monkeypox virus [29]): 30 nM
inhibition (INH) (Variola virus [30]): 50%
Activity (Monkeypox virus [31]): Active
Activity (Variola virus [32]): inactive
Activity (Variola virus [33]): Active
Activity (Variola virus [34]): Active
Activity (Variola virus [35]): Active
Activity (Monkeypox virus [36]): inactive
Activity (Monkeypox virus [37]): Active
